{"source": "patent EP3628672A1", "about": "(priority 2018, dated 2020)", "biological_target": "T1, purified LasB protein from P. aeruginosa (Pseudomonas aeruginosa, UniProt P14756)", "T1 construct": "purchased Merck or Charles River Laboratories", "T1 sequence (P14756 198-498)": "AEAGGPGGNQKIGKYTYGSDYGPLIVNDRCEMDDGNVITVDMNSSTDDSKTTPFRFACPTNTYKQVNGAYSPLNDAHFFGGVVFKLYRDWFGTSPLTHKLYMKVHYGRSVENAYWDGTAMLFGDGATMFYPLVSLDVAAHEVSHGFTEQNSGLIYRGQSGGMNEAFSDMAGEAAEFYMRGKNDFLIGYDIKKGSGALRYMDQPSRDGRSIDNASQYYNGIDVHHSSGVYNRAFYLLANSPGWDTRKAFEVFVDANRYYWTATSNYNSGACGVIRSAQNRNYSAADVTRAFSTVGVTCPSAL", "experiment": "Fluorometric assay to determine Ki (Abz-Ala-Gly-Leu-Ala-p-Nitro-Benzyl-Amide substrate)", "assay_type": "biochemical", "protocol": "Experiments were therefore conducted (1) to measure the potency of inhibition of compounds of the invention against purified Pseudomonas aeruginosa LasB enzyme and also experiments were conducted (2) to measure the ability of compounds of the invention to inhibit LasB-catalysed elastin degradation. The first assay uses a commercial fluorescent synthetic peptide and purified LasB enzyme. The LasB hydrolysis kinetics are measured allowing the determination of the IC50 and Ki of the inhibitors; the second is a more physiological assay using dialysed Pseudomonas aeruginosa supernatant as source of enzyme, plus its natural substrate Elastin. It is an \"end point assay\" that determines the percentage of LasB inhibition by each compound for one particular time point and inhibitor concentration. Technical details are described below:\nThis assay uses commercially available substrate (Abz-Ala-Gly-Leu-Ala-p-Nitro-Benzyl-Amide (Ex: 340 nm, Em: 415 nm) from Peptide International) and purified LasB protein from P. aeruginosa (provided by Merck or Charles River Laboratories). It is performed to determine LasB elastase activity and assess compound inhibition in 96-well plate format. All compounds of Formula (I) were assessed using the method described below.\nMethod: 10 to 140 ng/ml purified LasB is incubated with 250 µM Abz-Ala-Gly-Leu-Ala-p-Nitro-Benzyl-Amide in 50 mM Tris-HCl pH 7.4, 2.5 mM CaCl2, 0.01% of Triton X100 at 37°C. LasB activity (corresponding to fluorescence emission induced by substrate hydrolysis) is measured over 30 min at 37°C with a fluorescence plate reader such as the Perkin Elmer Envision or similar. Different range of inhibitor concentrations are routinely assessed depending of inhibitor potency from 0.0016 to 200 µM (2-fold dilutions series) in order to determine IC50.\nThe equation used to calculate the Ki from IC50 is: Ki = IC50 / (1+([S]/Km)) where [S] = 250 µM and Km = 214 µM.", "key": {"[1]": {"conditions": "Ki calculated from IC50, [S] = 250 µM, Km = 214 µM, 37°C, pH 7.4"}}, "note": "Read-outs that look alike come from different tables or passages of the source."}
{"compound": "CN(C)CCNS(=O)(=O)c1ccc(-c2csc(CNC(=O)C3(CC(=O)O)Cc4ccccc4C3)n2)cc1", "note": "[Example 131, 2-[2-[[4-[4-[2-(dimethylamino)ethylsulfamoyl]phenyl]thiazol-2-yl]methylcarbamoyl]indan-2-yl]acetic acid]", "values": [{"measurement": "Ki", "result": "0.2 to 10", "unit": "µM"}]}
{"compound": "C[n+]1ccc(CCn2cc(-c3csc(CNC(=O)C4(CC(=O)[O-])Cc5ccccc5C4)n3)cn2)cc1", "note": "[Example 117, 2-[2-[[4-[1-[2-(1-methylpyridin-1-ium-4-yl)ethyl]pyrazol-4-yl]thiazol-2-yl]methylcarbamoyl]indan-2-yl]acetate]", "values": [{"measurement": "Ki", "result": "0.2 to 10", "unit": "µM"}]}
{"compound": "COc1ccc(C(=O)N2CCN(C)CC2)cc1-c1csc(CNC(=O)C2(CC(=O)O)Cc3ccccc3C2)n1", "note": "[Example 25, 2-[2-[[4-[2-methoxy-5-(4-methylpiperazine-1-carbonyl)phenyl)thiazol-2-yl]methylcarbamoyl]indan-2-yl]acetic acid]", "values": [{"measurement": "Ki", "result": "0.2 to 10", "unit": "µM"}]}
{"compound": "NC1CCN(C(=O)COc2ccc(-c3csc(CNC(=O)C4(CC(=O)O)Cc5ccccc5C4)n3)cc2)CC1", "note": "[Example 52, 2-[2-[[4-[4-[2-(4-amino-1-piperidyl)-2-oxo-ethoxy]phenyl]thiazol-2-yl]methylcarbamoyl]indan-2-yl]acetic acid]", "values": [{"measurement": "Ki", "result": "0.05 to 0.2", "unit": "µM"}]}
{"compound": "CN(C)CCn1cc(-c2csc(CNC(=O)C3(CC(=O)O)Cc4ccccc4C3)n2)cn1", "note": "[Example 97, 2-[2-[[4-[1-[2-(dimethylamino)ethyl]pyrazol-4-yl]thiazol-2-yl]methylcarbamoyl]indan-2-yl]acetic acid]", "values": [{"measurement": "Ki", "result": "0.2 to 10", "unit": "µM"}]}
{"compound": "O=C(O)CC1(C(=O)NCc2nc(-c3cnn(CCCN4CCCCC4)c3)cs2)Cc2ccccc2C1", "note": "[Example 111, 2-[2-[[4-[1-[3-(1-piperidyl)propyl]pyrazol-4-yl]thiazol-2-yl]methylcarbamoyl]indan-2-yl]acetic acid]", "values": [{"measurement": "Ki", "result": "0.2 to 10", "unit": "µM"}]}
{"compound": "CN(C)[C@H]1CCN(C(=O)c2ccc(-c3csc(CNC(=O)C4(CC(=O)O)Cc5ccccc5C4)n3)cc2)C1", "note": "[Example 18, 2-[2-[[4-[4-[(3S)-3-(dimethylamino)pyrrolidine-1-carbonyl]phenyl]thiazol-2-yl]methylcarbamoyl]indan-2-yl]acetic acid]", "values": [{"measurement": "Ki", "result": "0.2 to 10", "unit": "µM"}]}
{"compound": "C[N+](C)(C)CC(=O)Nc1ccc(-c2csc(CNC(=O)C3(CC(=O)[O-])Cc4ccccc4C3)n2)cc1", "note": "[Example 40, 2-[2-[[4-[4-[[2-(trimethylammonio)acetyl]amino]phenyl]thiazol-2-yl]methylcarbamoyl]indan-2-yl] acetate]", "values": [{"measurement": "Ki", "result": "0.2 to 10", "unit": "µM"}]}
{"compound": "CN(C)CCOc1ccc(-c2csc(CNC(=O)C3(CC(=O)O)Cc4ccccc4C3)n2)cc1", "note": "[Example 48, 2-[2-[[4-[4-[2-(dimethylamino)ethoxy]phenyl]thiazol-2-yl]methylcarbamoyl]indan-2-yl]acetic acid]", "values": [{"measurement": "Ki", "result": "0.2 to 10", "unit": "µM"}]}
{"compound": "C[N+]1(CCCn2cc(-c3csc(CNC(=O)C4(CC(=O)[O-])Cc5ccccc5C4)n3)cn2)CCOCC1", "note": "[Example 100, 2-[2-[[4-[1-[3-(4-methylmorpholin-4-ium-4-yl)propyl]pyrazol-4-yl]thiazol-2-yl]methylcarbamoyl]indan-2-yl]acetate]", "values": [{"measurement": "Ki", "setting": "[1]", "result": "0.2 to 10", "unit": "µM"}]}
{"compound": "C[n+]1ccc(CCCn2cc(-c3csc(CNC(=O)C4(CC(=O)[O-])Cc5ccccc5C4)n3)cn2)cc1", "note": "[Example 118, 2-[2-[[4-[1-[3-(1-methylpyridin-1-ium-4-yl)propyl]pyrazol-4-yl]thiazol-2-yl]methylcarbamoyl]indan-2-yl]acetate]", "values": [{"measurement": "Ki", "result": "0.2 to 10", "unit": "µM"}]}
{"compound": "C[N+]1(C)CCN(C(=O)c2ccc(-c3csc(CNC(=O)C4(CC(=O)[O-])Cc5ccccc5C4)n3)cc2)CC1", "note": "[Example 22, 2-[2-[[4-[4-(4,4-dimethylpiperazin-4-ium-1-carbonyl)phenyl]thiazol-2-yl]methylcarbamoyl]indan-2-yl]acetate]", "values": [{"measurement": "Ki", "result": "0.2 to 10", "unit": "µM"}]}
{"compound": "CN(C)CC(=O)Nc1cccc(-c2csc(CNC(=O)C3(CC(=O)O)Cc4ccccc4C3)n2)c1", "note": "[Example 41, 2-[2-[[4-[3-[[2-(dimethylamino)acetyl]amino]phenyl]thiazol-2-yl]methylcarbamoyl]indan-2-yl]acetic acid]", "values": [{"measurement": "Ki", "result": "0.2 to 10", "unit": "µM"}]}
{"compound": "C[N+]1(C)CCC(C(=O)N2CC[N+](C)(CCCn3cc(-c4csc(CNC(=O)C5(CC(=O)O)Cc6ccccc6C5)n4)cn3)CC2)CC1", "note": "[Example 115, 2-[2-[[4-[1-[3-[4-(1,1-dimethylpiperidin-1-ium-4-carbonyl)-1-methyl-piperazin-1-ium-1-yl]propyl]pyrazol-4-yl]thiazol-2-yl]methylcarbamoyl]indan-2-yl] acetate]", "values": [{"measurement": "Ki", "setting": "[1]", "result": "0.2 to 10", "unit": "µM"}]}
{"compound": "CN(C)CCCNC(=O)c1ccccc1-c1csc(CNC(=O)C2(CC(=O)O)Cc3ccccc3C2)n1", "note": "[Example 21, 2-[2-[[4-[2-[3-(dimethylamino)propylcarbamoyl]phenyl]thiazol-2-yl]methylcarbamoyl]indan-2-yl]acetic acid]", "values": [{"measurement": "Ki", "result": "0.2 to 10", "unit": "µM"}]}
{"compound": "CN(C)C1CCN(C(=O)c2ccc(-c3csc(CNC(=O)C4(CC(=O)O)Cc5ccccc5C4)n3)cc2)CC1", "note": "[Example 17, 2-[2-[[4-[4-[4-(dimethylamino)piperidine-1-carbonyl]phenyl]thiazol-2-yl]methylcarbamoyl]indan-2-yl] acetic acid]", "values": [{"measurement": "Ki", "result": "0.2 to 10", "unit": "µM"}]}
{"compound": "CN(C)C(=O)C1CCN(CCCn2cc(-c3csc(CNC(=O)C4(CC(=O)O)Cc5ccccc5C4)n3)cn2)CC1", "note": "[Example 113, 2-[2-[[4-[1-[3-[4-(dimethylcarbamoyl)-1-piperidyl]propyl]pyrazol-4-yl]thiazol-2-yl]methylcarbamoyl]indan-2-yl]acetic acid]", "values": [{"measurement": "Ki", "result": "0.2 to 10", "unit": "µM"}]}
{"compound": "CN(C)C1CN(c2cccc(-c3csc(CNC(=O)C4(CC(=O)O)Cc5ccccc5C4)n3)c2)C1", "note": "[Example 29, 2-[2-[[4-[3-[3-(dimethylamino)azetidin-1-yl]phenyl]thiazol-2-yl]methylcarbamoyl]indan-2-yl]acetic acid]", "values": [{"measurement": "Ki", "result": "0.2 to 10", "unit": "µM"}]}
{"compound": "O=C(O)CC1(C(=O)NCc2nc3ccccc3s2)Cc2cc(Cl)c(Cl)cc2C1", "note": "[Example 4, 2-(2-((benzo[d]thiazol-2-ylmethyl)carbamoyl)-5,6-dichloro-2,3-dihydro-1H-inden-2-yl)acetic acid]", "values": [{"measurement": "Ki", "result": "0.2 to 10", "unit": "µM"}]}
{"compound": "C[N+](C)(C)CC(=O)Nc1cccc(-c2csc(CNC(=O)C3(CC(=O)[O-])Cc4ccccc4C3)n2)c1", "note": "[Example 42, 2-[2-[[4-[3-[[2-(trimethylammonio)acetyl]amino]phenyl]thiazol-2-yl]methylcarbamoyl]indan-2-yl] acetate]", "values": [{"measurement": "Ki", "result": "0.2 to 10", "unit": "µM"}]}
{"compound": "COc1ccc(C(=O)NCCN(C)C)cc1-c1csc(CNC(=O)C2(CC(=O)O)Cc3ccccc3C2)n1", "note": "[Example 24, 2-[2-[[4-[5-[2-(dimethylamino)ethylcarbamoyl]-2-methoxy-phenyl]thiazol-2-yl]methylcarbamoyl]indan-2-yl]acetic acid]", "values": [{"measurement": "Ki", "result": "0.2 to 10", "unit": "µM"}]}
{"compound": "CC(=O)N1CC[N+](C)(CCCn2cc(-c3csc(CNC(=O)C4(CC(=O)[O-])Cc5ccccc5C4)n3)cn2)CC1", "note": "[Example 107, 2-[2-[[4-[1-[3-(4-acetyl-1-methyl-piperazin-1-ium-1-yl)propyl]pyrazol-4-yl]thiazol-2-yl]methylcarbamoyl]indan-2-yl]acetate]", "values": [{"measurement": "Ki", "result": "0.2 to 10", "unit": "µM"}]}
{"compound": "CN(C)CCOc1cccc(-c2csc(CNC(=O)C3(CC(=O)O)Cc4ccccc4C3)n2)c1", "note": "[Example 53, 2-[2-[[4-[3-[2-(dimethylamino)ethoxy]phenyl]thiazol-2-yl]methylcarbamoyl]indan-2-yl]acetic acid]", "values": [{"measurement": "Ki", "result": "0.2 to 10", "unit": "µM"}]}
{"compound": "CN1CCN(C(=O)c2cncc(-c3csc(CNC(=O)C4(CC(=O)O)Cc5ccccc5C4)n3)c2)CC1", "note": "[Example 144, 2-[2-[[4-[5-(4-methylpiperazine-1-carbonyl)-3-pyridyl]thiazol-2-yl]methylcarbamoyl]indan-2-yl]acetic acid]", "values": [{"measurement": "Ki", "result": "0.2 to 10", "unit": "µM"}]}
